“Also recorded” adds a separate entry of the source. Marks after values point to notes of the source that are not given here.
Key:
human recombinant COX-2 = biological target: T1, human recombinant COX-2 (Homo sapiens, UniProt P35354); experiment: In vitro COX-2 inhibition, enzyme immunoassay; type: biochemical; conditions: for COX-2 S.I. (COX-1/COX-2): IC50 (COX-1)/IC50 (COX-2)
T1 sequence (P35354 18-604): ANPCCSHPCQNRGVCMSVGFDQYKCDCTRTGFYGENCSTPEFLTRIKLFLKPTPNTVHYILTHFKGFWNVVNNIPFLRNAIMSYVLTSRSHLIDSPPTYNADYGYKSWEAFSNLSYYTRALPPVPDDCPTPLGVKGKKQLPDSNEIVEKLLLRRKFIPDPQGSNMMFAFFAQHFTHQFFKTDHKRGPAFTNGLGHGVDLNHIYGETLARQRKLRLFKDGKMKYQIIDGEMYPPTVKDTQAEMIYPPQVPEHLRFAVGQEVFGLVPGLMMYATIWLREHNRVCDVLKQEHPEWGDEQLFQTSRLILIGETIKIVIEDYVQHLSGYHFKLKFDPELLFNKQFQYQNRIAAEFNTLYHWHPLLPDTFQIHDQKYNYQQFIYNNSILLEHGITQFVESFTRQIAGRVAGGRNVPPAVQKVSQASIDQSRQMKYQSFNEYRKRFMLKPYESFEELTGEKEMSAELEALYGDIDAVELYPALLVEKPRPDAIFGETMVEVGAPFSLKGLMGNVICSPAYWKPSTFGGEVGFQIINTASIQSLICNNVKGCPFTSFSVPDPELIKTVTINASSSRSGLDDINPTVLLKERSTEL

[1] = type: in vivo, White New Zealand rabbits; conditions: normotensive rabbits; for MABP: mean arterial blood pressure, i.v. (jugular vein), means ± SE, n = 4
PDE5 = PDE5 (Homo sapiens, UniProt O76074); experiment: Phosphodiesterase 5 enzyme activity assay; type: biochemical; conditions: for inhibition at 10 µM: read-out: PDE5 activity, decrease (↓, inhibition); for effect on PDE5 activity (in words): 10 μM; for PDE5 activity, increase (↑, enhancement): 10 μM compound
ovine COX-1 = biological target: T2, ovine COX-1 (Ovis aries, UniProt P05979); experiment: In vitro COX-1 inhibition, enzyme immunoassay; type: biochemical
T2 sequence (P05979 25-600): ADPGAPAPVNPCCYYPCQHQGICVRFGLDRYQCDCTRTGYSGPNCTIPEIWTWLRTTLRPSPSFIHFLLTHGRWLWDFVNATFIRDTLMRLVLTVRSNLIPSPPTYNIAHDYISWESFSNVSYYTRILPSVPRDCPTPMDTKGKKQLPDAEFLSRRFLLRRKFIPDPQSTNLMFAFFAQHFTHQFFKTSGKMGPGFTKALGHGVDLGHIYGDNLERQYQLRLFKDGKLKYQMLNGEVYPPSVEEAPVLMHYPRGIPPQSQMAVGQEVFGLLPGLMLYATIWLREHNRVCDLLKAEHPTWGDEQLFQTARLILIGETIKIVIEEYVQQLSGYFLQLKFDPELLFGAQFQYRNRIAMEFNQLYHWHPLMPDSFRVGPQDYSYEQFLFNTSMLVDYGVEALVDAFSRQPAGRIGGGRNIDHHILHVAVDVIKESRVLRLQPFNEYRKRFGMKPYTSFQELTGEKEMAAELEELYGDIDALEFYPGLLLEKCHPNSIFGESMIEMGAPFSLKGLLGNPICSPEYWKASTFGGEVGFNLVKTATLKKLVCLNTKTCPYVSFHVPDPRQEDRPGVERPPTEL

Row | Compound | IC50 (human recombinant COX-2) | COX-2 S.I. (COX-1/COX-2) (human recombinant COX-2) | MABP [1] | MABP compared with control (in words) [1] | inhibition at 10 µM (PDE5) | IC50 (ovine COX-1) | effect on PDE5 activity (in words) (PDE5) | PDE5 activity, increase (↑, enhancement) (PDE5) | MABP compared with sildenafil (in words) [1]
1 | CC(=O)C(=NO)C(=O)Nc1nccs1 [Compound 2, 2-(hydroxyimino)-3-oxo-N-(thiazol-2-yl)butanamide] | 0.11 µM | 13.64 | 115^## | significantly higher | 53% | 1.5 µM | – | – | –
2 | CCOC(=O)c1c(C)[nH]c(C(=O)Nc2nccs2)c1C [Compound 5a, Ethyl 2,4-dimethyl-5-(thiazol-2-ylcarbamoyl)-1H-pyrrole-3-carboxylate] | 0.1 µM | 16 | 108^## | significantly higher | – | 1.6 µM | increased the PDE5 activity | 222% | –
3 | CC(=O)c1c(C)[nH]c(C(=O)Nc2nccs2)c1C [Compound 5b, 4-Acetyl-3,5-dimethyl-N-(thiazol-2-yl)-1H-pyrrole-2-carboxamide] | 0.24 µM | 5.4 | 98 | higher than the control values in a nonsignificant manner | – | 1.3 µM | very low activity | 15% | –
4 | Cc1cc(O)n(-c2nccs2)n1 [Compound 7, 3-methyl-1-(thiazol-2-yl)-1H-pyrazol-5-ol] | 0.63 µM | 10.06 | 81^# | significantly lower than that of the control | 75% | 6.34 µM | – | – | insignificantly higher than the sildenafil one
5 | CCOC(=O)CCC(=O)Nc1nccs1 [Compound 11, ethyl 4-oxo-4-(thiazol-2-ylamino)butanoate] | 0.21 µM | 8.1 | 85^& | insignificantly lower than the control values | – | 1.7 µM | very low activity | 3.5% | significantly higher than the sildenafil values
6 | CC(=O)C(C(C)=O)C(=O)Nc1nccs1 [Compound 17, 2-acetyl-3-oxo-N-(thiazol-2-yl)butanamide] | 0.09 µM | 15.56 | 87^& | insignificantly lower than the control values | – | 1.4 µM | increased the PDE5 activity | 371% | significantly higher than the sildenafil values
7 | C/C(=C/C(=O)Nc1nccs1)Nc1ccccc1 [Compound 23a, (Z)-3-(phenylamino)-N-(thiazol-2-yl)but-2-enamide] | 0.71 µM | 8.87 | 108 | without causing hypotension; also recorded: higher than the control values in a nonsignificant manner; also recorded: without a notable decrease in MABP | 100% | 6.3 µM | – | – | –
8 | COc1ccc(N/C(C)=C\C(=O)Nc2nccs2)cc1 [Compound 23b, (Z)-3-((4-methoxyphenyl)amino)-N-(thiazol-2-yl)but-2-en-amide] | 0.56 µM | 10.25 | 110^## | significantly higher; also recorded: without a notable decrease in MABP | 100% | 5.74 µM | increased the PDE5 activity; also recorded: very low activity | 15% | –
9 | C/C(=C/C(=O)Nc1nccs1)Nc1ccc(Cl)cc1 [Compound 23c, (Z)-3-((4-chlorophenyl)amino)-N-(thiazol-2-yl)but-2-enamide] | 0.61 µM | 10.38 | 100 | without causing hypotension; also recorded: higher than the control values in a nonsignificant manner | 100% | 6.33 µM | – | – | –
10 | CCCc1nn(C)c2c(=O)[nH]c(-c3cc(S(=O)(=O)N4CCN(C)CC4)ccc3OCC)nc12 [Sildenafil, sildenafil, reference compound] | – | – | 72.50 ± 2.9 | – | 100% | – | – | – | –

Reference: article PMC9056166 (RSC Advances, 2020)
